In patent US20230139171A1 (SITA Information Networking Computing UK Limited, priority 2019, published 2023):

What was measured:
Assay type in all cases: cell-based
human TLR9 = molecular target: T1, human TLR9 (Homo sapiens, UniProt Q9NR96); experiment: TLR9 inhibition reporter assay (HEK-Blue cells, SEAP reporter, ODN2006 stimulation); conditions: HEK-Blue cells overexpressing human TLR9, SEAP reporter, ODN2006 5 nM
T1 construct: host or cells: HEK-Blue cells
T1 sequence (Q9NR96 26-1032): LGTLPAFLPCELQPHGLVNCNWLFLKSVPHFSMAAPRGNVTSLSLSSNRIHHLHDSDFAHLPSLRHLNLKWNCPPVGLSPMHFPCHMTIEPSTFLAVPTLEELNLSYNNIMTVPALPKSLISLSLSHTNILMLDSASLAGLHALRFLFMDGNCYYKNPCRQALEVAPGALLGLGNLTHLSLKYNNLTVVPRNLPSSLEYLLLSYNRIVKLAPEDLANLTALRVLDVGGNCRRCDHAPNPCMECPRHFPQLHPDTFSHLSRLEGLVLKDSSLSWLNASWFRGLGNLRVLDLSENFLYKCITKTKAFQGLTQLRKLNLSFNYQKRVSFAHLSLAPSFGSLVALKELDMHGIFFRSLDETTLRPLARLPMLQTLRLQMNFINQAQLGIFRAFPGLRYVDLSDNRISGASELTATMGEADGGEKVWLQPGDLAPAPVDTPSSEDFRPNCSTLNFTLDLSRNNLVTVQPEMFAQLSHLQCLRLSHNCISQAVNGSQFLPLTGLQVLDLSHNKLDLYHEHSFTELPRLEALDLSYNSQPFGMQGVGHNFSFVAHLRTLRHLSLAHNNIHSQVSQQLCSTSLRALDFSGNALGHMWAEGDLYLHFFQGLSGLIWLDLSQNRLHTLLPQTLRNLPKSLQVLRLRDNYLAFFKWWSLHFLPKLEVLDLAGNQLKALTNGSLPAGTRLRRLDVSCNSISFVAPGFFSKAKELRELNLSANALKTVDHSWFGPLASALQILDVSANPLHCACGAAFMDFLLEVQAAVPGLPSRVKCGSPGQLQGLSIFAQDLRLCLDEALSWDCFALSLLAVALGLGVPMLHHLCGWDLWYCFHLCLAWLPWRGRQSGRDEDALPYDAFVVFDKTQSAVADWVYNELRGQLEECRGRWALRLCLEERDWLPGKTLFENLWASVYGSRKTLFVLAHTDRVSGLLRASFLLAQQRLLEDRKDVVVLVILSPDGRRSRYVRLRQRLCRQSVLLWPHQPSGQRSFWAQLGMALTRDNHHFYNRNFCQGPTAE
Experimental: TLR7/8/9 Inhibition Reporter Assays
HEK-Blue™-cells (Invivogen) overexpressing human TLR7, TLR8 or TLR9 receptors were used for screening inhibitors of these receptors using an inducible SEAP (secreted embryonic alkaline phosphatase) reporter gene under the control of the IFN-β minimal promoter fused to five NF-κB and AP-1-binding sites. Briefly, cells are seeded into Greiner 384 well plates (15000 cells per well for TLR7, 20,000 for TLR8 and 25,000 for TLR9) and then treated with test compounds in DMSO to yield a final dose response concentration range of 0.05 nM-50 μM. After a 30 minute compound pre-treatment at room temperature, the cells are then stimulated with a TLR7 ligand (gardiquimod at a final concentration of 7.5 μM), TLR8 ligand (R848 at a final concentration of 15.9 μM) or TLR9 ligand (ODN2006 at a final concentration of 5 nM) to activate NF-κB and AP-1 which induce the production of SEAP. After a 22 hour incubation at 37° C., 5% CO2, SEAP levels are determined with the addition of HEK-Blue™ Detection reagent (Invivogen), a cell culture medium that allows for detection of SEAP, according to manufacturer's specifications. The percent inhibition is determined as the % reduction in the HEK-Blue signal present in wells treated with agonist plus DMSO alone compared to wells treated with a known inhibitor.

human TLR8 = molecular target: T2, human TLR8 (Homo sapiens, UniProt Q9NR97); experiment: TLR8 inhibition reporter assay (HEK-Blue cells, SEAP reporter, R848 stimulation); conditions: HEK-Blue cells overexpressing human TLR8, SEAP reporter, R848 15.9 μM; read-out: TLR8 IC50
T2 construct: host or cells: HEK-Blue cells
T2 sequence (Q9NR97 27-1041): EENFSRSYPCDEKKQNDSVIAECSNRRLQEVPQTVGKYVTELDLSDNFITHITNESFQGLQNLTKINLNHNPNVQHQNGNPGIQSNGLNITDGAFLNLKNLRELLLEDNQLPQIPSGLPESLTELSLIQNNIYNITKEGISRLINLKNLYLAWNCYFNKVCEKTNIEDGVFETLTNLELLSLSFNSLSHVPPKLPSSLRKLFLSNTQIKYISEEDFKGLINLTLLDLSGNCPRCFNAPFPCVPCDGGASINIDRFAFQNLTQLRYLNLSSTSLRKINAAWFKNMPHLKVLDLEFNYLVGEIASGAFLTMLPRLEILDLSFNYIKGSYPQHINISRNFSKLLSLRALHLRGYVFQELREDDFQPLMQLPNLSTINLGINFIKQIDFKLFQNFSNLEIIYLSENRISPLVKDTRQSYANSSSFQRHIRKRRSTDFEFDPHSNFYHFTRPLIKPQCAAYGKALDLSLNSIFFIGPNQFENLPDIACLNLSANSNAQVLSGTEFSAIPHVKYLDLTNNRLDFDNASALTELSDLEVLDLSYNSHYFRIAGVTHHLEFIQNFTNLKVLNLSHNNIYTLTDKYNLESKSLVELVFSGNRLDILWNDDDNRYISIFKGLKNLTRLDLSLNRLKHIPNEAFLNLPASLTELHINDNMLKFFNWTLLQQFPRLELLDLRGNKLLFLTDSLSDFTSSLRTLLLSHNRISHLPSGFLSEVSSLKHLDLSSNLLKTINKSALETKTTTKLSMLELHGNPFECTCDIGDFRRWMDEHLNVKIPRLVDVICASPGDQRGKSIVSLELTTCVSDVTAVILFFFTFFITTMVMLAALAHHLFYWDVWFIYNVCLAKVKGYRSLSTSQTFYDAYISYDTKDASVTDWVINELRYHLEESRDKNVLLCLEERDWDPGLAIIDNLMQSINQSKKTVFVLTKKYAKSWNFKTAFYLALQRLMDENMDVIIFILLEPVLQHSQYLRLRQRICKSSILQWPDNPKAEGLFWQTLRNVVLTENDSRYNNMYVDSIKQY
Outline: (§1)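 Human TLR7/8/9 HEK-Blue reporter lines; dose range 0.05 nM–50 μM; 30 min RT preincubation; stimulus gardiquimod 7.5 μM / R848 15.9 μM / ODN2006 5 nM respectively; 22 h, 37 °C; SEAP detected colorimetrically.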

human TLR7 = molecular target: T3, human TLR7 (Homo sapiens, UniProt Q9NYK1); experiment: TLR7 inhibition reporter assay (HEK-Blue cells, SEAP reporter, gardiquimod stimulation); conditions: HEK-Blue cells overexpressing human TLR7, SEAP reporter, gardiquimod 7.5 μM; read-out: TLR7 IC50
T3 construct: host or cells: HEK-Blue cells
T3 sequence (Q9NYK1 27-1049): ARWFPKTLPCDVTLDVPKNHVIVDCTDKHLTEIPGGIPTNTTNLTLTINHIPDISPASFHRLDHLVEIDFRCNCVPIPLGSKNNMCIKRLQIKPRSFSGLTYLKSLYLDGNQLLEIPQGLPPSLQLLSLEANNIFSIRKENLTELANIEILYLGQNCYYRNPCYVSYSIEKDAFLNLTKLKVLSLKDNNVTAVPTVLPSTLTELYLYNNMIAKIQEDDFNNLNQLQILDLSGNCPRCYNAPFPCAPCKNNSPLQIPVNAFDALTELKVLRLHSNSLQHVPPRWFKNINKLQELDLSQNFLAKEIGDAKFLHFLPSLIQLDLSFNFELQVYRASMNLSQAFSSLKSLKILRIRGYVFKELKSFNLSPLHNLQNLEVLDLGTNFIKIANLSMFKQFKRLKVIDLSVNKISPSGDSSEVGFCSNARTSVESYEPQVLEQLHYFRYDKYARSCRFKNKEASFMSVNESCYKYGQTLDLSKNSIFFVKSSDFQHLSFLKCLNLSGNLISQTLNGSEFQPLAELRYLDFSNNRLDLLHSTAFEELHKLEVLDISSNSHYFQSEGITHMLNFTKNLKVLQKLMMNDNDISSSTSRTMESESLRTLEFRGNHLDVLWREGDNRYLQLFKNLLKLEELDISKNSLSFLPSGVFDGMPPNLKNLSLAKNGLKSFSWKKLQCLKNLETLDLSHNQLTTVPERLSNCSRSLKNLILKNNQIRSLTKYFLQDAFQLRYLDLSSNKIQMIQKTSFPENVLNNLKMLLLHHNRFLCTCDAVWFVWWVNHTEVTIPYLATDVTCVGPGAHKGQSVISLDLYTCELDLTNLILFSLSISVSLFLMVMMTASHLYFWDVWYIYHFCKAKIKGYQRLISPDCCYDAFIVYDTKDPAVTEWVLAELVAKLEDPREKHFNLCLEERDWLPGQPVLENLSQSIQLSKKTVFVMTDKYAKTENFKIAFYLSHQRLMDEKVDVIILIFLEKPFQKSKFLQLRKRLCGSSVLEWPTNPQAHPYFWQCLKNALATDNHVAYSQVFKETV
Outline: as §1

| SMILES | IC50 (human TLR9) | IC50 (human TLR8) | IC50 (human TLR7) |
| --- | --- | --- | --- |
| CCN(C)C1CCC(c2nc3c(C(C)C)c(-c4cc(OC)c5ncnn5c4)[nH]c3s2)CC1 (single isomer, unassigned) [Example 72, N-ethyl-4-(6-isopropyl-5-(8-methoxy-[1,2,4]triazolo[1,5-a]pyridin-6-yl)-4H-pyrrolo[3,2-d]thiazol-2-yl)-N-methylcyclohexan-1-amine] | 7220 nM | 4.75 nM | 1.23 nM |
| CCN(C)C1CCC(c2nc3c(C(C)C)c(-c4cc(OC)c5ncnn5c4)[nH]c3s2)CC1 (single isomer, unassigned) [Example 73, N-ethyl-4-(6-isopropyl-5-(8-methoxy-[1,2,4]triazolo[1,5-a]pyridin-6-yl)-4H-pyrrolo[3,2-d]thiazol-2-yl)-N-methylcyclohexan-1-amine] | 4280 nM | 12.7 nM | 0.96 nM |
| CNC1CCC(c2nc3c(C(C)C)c(-c4cc(OC)c5ncnn5c4)[nH]c3s2)CC1 (single isomer, unassigned) [Example 74, 4-(6-isopropyl-5-(8-methoxy-[1,2,4]triazolo[1,5-a]pyridin-6-yl)-4H-pyrrolo[3,2-d]thiazol-2-yl)-N-methylcyclohexan-1-amine] | 1910 nM | 3.44 nM | 0.71 nM |
| COc1cc(-c2[nH]c3sc(C4CCC(NC(C)C)CC4)nc3c2C(C)C)cn2ncnc12 (single isomer, unassigned) [Example 78, N-isopropyl-4-(6-isopropyl-5-(8-methoxy-[1,2,4]triazolo[1,5-a]pyridin-6-yl)-4H-pyrrolo[3,2-d]thiazol-2-yl)cyclohexan-1-amine] | 2870 nM | 1.64 nM | 0.59 nM |
| COc1cc(-c2[nH]c3sc(C4CCC(NC(C)C)CC4)nc3c2C(C)C)cn2ncnc12 (single isomer, unassigned) [Example 79, N-isopropyl-4-(6-isopropyl-5-(8-methoxy-[1,2,4]triazolo[1,5-a]pyridin-6-yl)-4H-pyrrolo[3,2-d]thiazol-2-yl)cyclohexan-1-amine] | 4120 nM | 9.23 nM | 2.29 nM |

Now from value to compound:

| IC50 (human TLR9) | IC50 (human TLR8) | IC50 (human TLR7) | SMILES |
| --- | --- | --- | --- |
| 3390 nM | 7.55 nM | 0.89 nM | CNC1CCC(c2nc3c(C(C)C)c(-c4cc(OC)c5ncnn5c4)[nH]c3s2)CC1 (single isomer, unassigned) [Example 75, 4-(6-isopropyl-5-(8-methoxy-[1,2,4]triazolo[1,5-a]pyridin-6-yl)-4H-pyrrolo[3,2-d]thiazol-2-yl)-N-methylcyclohexan-1-amine] |
| 1450 nM | 2.62 nM | 0.9 nM | COc1cc(-c2[nH]c3sc(C4CCC(N5CCC5)CC4)nc3c2C(C)C)cn2ncnc12 (single isomer, unassigned) [Example 76, 2-(4-(azetidin-1-yl)cyclohexyl)-6-isopropyl-5-(8-methoxy-[1,2,4]triazolo[1,5-a]pyridin-6-yl)-4H-pyrrolo[3,2-d]thiazole] |
| 3270 nM | 21.5 nM | 2.03 nM | COc1cc(-c2[nH]c3sc(C4CCC(N5CCC5)CC4)nc3c2C(C)C)cn2ncnc12 (single isomer, unassigned) [Example 77, 2-(4-(azetidin-1-yl)cyclohexyl)-6-isopropyl-5-(8-methoxy-[1,2,4]triazolo[1,5-a]pyridin-6-yl)-4H-pyrrolo[3,2-d]thiazole] |
| > 50000 nM | 43.6 nM | 4.69 nM | COc1cc(-c2[nH]c3sc(C4CCC(N5CCS(=O)(=O)CC5)CC4)nc3c2C(C)C)cn2ncnc12 (single isomer, unassigned) [Example 82, 4-(4-(6-isopropyl-5-(8-methoxy-[1,2,4]triazolo[1,5-a]pyridin-6-yl)-4H-pyrrolo[3,2-d]thiazol-2-yl)cyclohexyl)thiomorpholine 1,1-dioxide] |
